Measured values taken from US10183938B2, “Geminal substituted quinuclidine amide compounds as agonists of α-7 nicotonic acetylcholine receptors” (AXOVANT SCIENCES GMBH, priority 2014, dated 2019).
Structures can show the parent of a compound that is named as a salt. Where two headings read alike, the source gives them in different places.

Experiments:
[1] = target: human 5-HT3 serotonin receptors (Homo sapiens (Human), UniProt P46098); experiment: [3H]BRL 43694 competition binding
[2] = target: human α7 nAChRs transiently expressed in Xenopus laevis oocytes (Homo sapiens (Human), UniProt P36544); experiment: Oocyte electrophysiology screen (TEVC); type: cell-based; conditions: 0.01 mM test compound, peak current relative to 0.2 mM ACh
How it was run: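 Peak inward current from 0.01 mM compound, applied 30 s, is expressed relative to a 5 s 0.2 mM ACh reference response, in triplicate. Recordings used two-electrode voltage clamp at −80 mV in Xenopus oocytes with 90 s OR2 washes.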

[3] = CHO cell membranes, [3H]BRL 43694, Cheng Prusoff, read-out: h-5HT3 Ki

Chain of human 5-HT3 serotonin receptors (P46098 24-478): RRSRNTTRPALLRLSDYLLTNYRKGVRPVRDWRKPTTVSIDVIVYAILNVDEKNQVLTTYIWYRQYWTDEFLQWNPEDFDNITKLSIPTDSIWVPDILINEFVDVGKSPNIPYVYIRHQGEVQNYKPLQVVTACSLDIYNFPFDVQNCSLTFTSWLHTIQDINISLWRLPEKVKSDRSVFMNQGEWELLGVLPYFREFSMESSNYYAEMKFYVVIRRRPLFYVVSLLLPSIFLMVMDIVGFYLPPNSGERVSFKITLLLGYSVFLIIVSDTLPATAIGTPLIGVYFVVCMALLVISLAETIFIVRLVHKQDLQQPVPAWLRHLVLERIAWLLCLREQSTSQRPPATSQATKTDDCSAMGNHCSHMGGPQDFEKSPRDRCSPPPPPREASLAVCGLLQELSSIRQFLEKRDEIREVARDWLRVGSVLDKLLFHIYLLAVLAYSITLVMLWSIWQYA
Chain of human α7 nAChRs transiently expressed in Xenopus laevis oocytes (P36544 23-502 limits assumed): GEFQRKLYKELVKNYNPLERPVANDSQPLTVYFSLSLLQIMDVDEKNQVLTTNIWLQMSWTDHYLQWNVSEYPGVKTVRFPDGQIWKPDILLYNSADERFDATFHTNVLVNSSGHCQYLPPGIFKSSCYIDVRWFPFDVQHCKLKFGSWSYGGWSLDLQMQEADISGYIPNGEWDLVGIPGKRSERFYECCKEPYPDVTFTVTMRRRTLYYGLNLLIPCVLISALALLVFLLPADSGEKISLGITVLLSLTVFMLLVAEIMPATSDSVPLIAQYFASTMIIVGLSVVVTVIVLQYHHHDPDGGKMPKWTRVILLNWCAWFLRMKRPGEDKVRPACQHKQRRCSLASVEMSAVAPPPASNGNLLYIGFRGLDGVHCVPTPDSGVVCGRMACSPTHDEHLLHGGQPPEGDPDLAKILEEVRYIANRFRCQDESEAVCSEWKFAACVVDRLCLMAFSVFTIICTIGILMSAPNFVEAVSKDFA

For `COc1ccc2cc(C(=O)N[C@@H]3C4CCN(CC4)C3(C)C)sc2c1` [(R)-20, (R)—N-(2,2-dimethylquinuclidin-3-yl)-6-methoxybenzo[b]thiophene-2-carboxamide hydrochloride], the Ki [1, 3] was greater than 10000 nM and the “% ACh @ 10 μM Oocyte” value [2] was 558 % ACh.

In the case of `CC1(C)[C@H](NC(=O)c2cc3cc(C(F)(F)F)ccc3s2)C2CCN1CC2` [(R)-17, (R)—N-(2,2-dimethylquinuclidin-3-yl)-5-(trifluoromethyl)benzo[b]thiophene-2-carboxamide hydrochloride], the Ki [1, 3] is reported as greater than 10000 nM and the “% ACh @ 10 μM Oocyte” value [2] is reported as 0 % ACh.

`O=C(N[C@@H]1C2CCN(CC2)C12CC2)c1cc2ccoc2cn1` [(R)-75, (R)—N-(1′-azaspiro[cyclopropane-1,2′-bicyclo[2.2.2]octan]-3′-yl)furo[2,3-c]pyridine-5-carboxamide hydrochloride] was tested, and the Ki [1, 3] was 3300 nM and the “% ACh @ 10 μM Oocyte” value [2] was 594 % ACh.

With `Cc1ccc2cc(C(=O)N[C@@H]3C4CCN(CC4)C3(C)C)sc2c1` [(R)-15, (R)—N-(2,2-dimethylquinuclidin-3-yl)-6-methylbenzo[b]thiophene-2-carboxamide hydrochloride] the Ki [1, 3] was greater than 10000 nM and the “% ACh @ 10 μM Oocyte” value [2] was 539 % ACh.

For `O=C(N[C@@H]1C2CCN(CC2)C12CC2)c1cc2ccc(Cl)cc2o1` [(R)-163, (R)-6-chloro-N-(1′-azaspiro[cyclopropane-1,2′-bicyclo[2.2.2]octan]-3′-yl)benzofuran-2-carboxamide hydrochloride], the Ki [1, 3] was 2000 nM and the “% ACh @ 10 μM Oocyte” value [2] was 446 % ACh.

For `O=C(N[C@@H]1C2CCN(CC2)C12CC2)c1ccc2ccoc2c1` [(R)-84, (R)—N-(1′-azaspiro[cyclopropane-1,2′-bicyclo[2.2.2]octan]-3′-yl)benzofuran-6-carboxamide hydrochloride], the Ki [1, 3] was 4700 nM and the “% ACh @ 10 μM Oocyte” value [2] was 341 % ACh.

`Cc1cc2cc(C(=O)N[C@@H]3C4CCN(CC4)C34CC4)ccc2o1` [(R)-91, (R)-2-methyl-N-(1′-azaspiro[cyclopropane-1,2′-bicyclo[2.2.2]octan]-3′-yl)benzofuran-5-carboxamide hydrochloride] was tested, and the Ki [1, 3] was greater than 10000 nM and the “% ACh @ 10 μM Oocyte” value [2] was 653 % ACh.

In the case of `CC1(C)[C@H](NC(=O)c2cc3c(cn2)OCCO3)C2CCN1CC2` [(R)-23, (R)—N-(2,2-dimethylquinuclidin-3-yl)-2,3-dihydro-[1,4]dioxino[2,3-c]pyridine-7-carboxamide hydrochloride], the Ki [1, 3] is reported as greater than 10000 nM and the “% ACh @ 10 μM Oocyte” value [2] is reported as 82 % ACh.

For `CC1(C)[C@H](NC(=O)c2cc3ccc(C4CC4)cc3s2)C2CCN1CC2` [(R)-18, (R)-6-cyclopropyl-N-(2,2-dimethylquinuclidin-3-yl)benzo[b]thiophene-2-carboxamide hydrochloride], the Ki [1, 3] was greater than 10000 nM and the “% ACh @ 10 μM Oocyte” value [2] was 422 % ACh.

For `CC1(C)[C@H](NC(=O)c2cc3cccc(F)c3s2)C2CCN1CC2` [(R)-4, (R)—N-(2,2-dimethylquinuclidin-3-yl)-7-fluoro-benzo[b]thiophene-2-carboxamide hydrochloride], the Ki [1, 3] was 870 nM and the “% ACh @ 10 μM Oocyte” value [2] was 1060 % ACh.

With `Cc1ccc2cc(C(=O)N[C@@H]3C4CCN(CC4)C34CC4)sc2c1Cl` [(R)-156, (R)-7-chloro-6-methyl-N-(1′-azaspiro[cyclopropane-1,2′-bicyclo[2.2.2]octan]-3′-yl)benzo[b]thiophene-2-carboxamide hydrochloride] the Ki [1, 3] was 300 nM and the “% ACh @ 10 μM Oocyte” value [2] was 403 % ACh.

For `O=C(NC1C2CCN(CC2)C12CC2)c1ccc2occc2c1` (single isomer, unassigned; enantiomer1) [59a, N-(1′-azaspiro[cyclopropane-1,2′-bicyclo[2.2.2]octan]-3′-yl)benzofuran-5-carboxamide-enantiomer1], the Ki [1] was 6500 nM and the “% ACh @ 10 μM Oocyte” value [2] was 823 % ACh.

For `Cc1nc2cc(C(=O)N[C@@H]3C4CCN(CC4)C34CC4)ccc2o1` [(R)-85, (R)-2-methyl-N-(1′-azaspiro[cyclopropane-1,2′-bicyclo[2.2.2]octan]-3′-yl)benzo[d]oxazole-5-carboxamide], the Ki [1, 3] was greater than 10000 nM and the “% ACh @ 10 μM Oocyte” value [2] was 188 % ACh.

In the case of `CC1(C)[C@H](NC(=O)c2ccc3sccc3c2)C2CCN1CC2` [(R)-30, (R)—N-(2,2-dimethylquinuclidin-3-yl)benzo[b]thiophene-5-carboxamide hydrochloride], the Ki [1, 3] is reported as 2300 nM and the “% ACh @ 10 μM Oocyte” value [2] is reported as 396 % ACh.

For `CC1(C)[C@H](NC(=O)c2cc3ccc(C#N)cc3s2)C2CCN1CC2` [(R)-9, (R)-6-cyano-N-(2,2-dimethylquinuclidin-3-yl)benzo[b]thiophene-2-carboxamide hydrochloride], the Ki [1, 3] was greater than 10000 nM and the “% ACh @ 10 μM Oocyte” value [2] was 2 % ACh.

With `CC1(C)[C@H](NC(=O)c2cc3ccc(F)c(Cl)c3s2)C2CCN1CC2` [(R)-114, (R)-7-chloro-N-(2,2-dimethylquinuclidin-3-yl)-6-fluorobenzo[b]thiophene-2-carboxamide hydrochloride] the Ki [1, 3] was 620 nM and the “% ACh @ 10 μM Oocyte” value [2] was 703 % ACh.

For `CC1(C)[C@H](NC(=O)c2cc3cccc(Cl)c3o2)C2CCN1CC2.Cl` [(R)-217, (R)-7-chloro-N-(2,2-dimethylquinuclidin-3-yl)benzofuran-2-carboxamide hydrochloride], the Ki [1, 3] was 1100 nM and the “% ACh @ 10 μM Oocyte” value [2] was 473 % ACh.

For `CC1(C)[C@H](NC(=O)c2cc3ccc(Cl)c(F)c3s2)C2CCN1CC2` [(R)-110, (R)-6-chloro-N-(2,2-dimethylquinuclidin-3-yl)-7-fluorobenzo[b]thiophene-2-carboxamide hydrochloride], the Ki [1, 3] was greater than 10000 nM and the “% ACh @ 10 μM Oocyte” value [2] was 444 % ACh.

`O=C(NC1C2CCN(CC2)C12CC2)c1cc2ccc(F)cc2s1` (single isomer, unassigned; enantiomer1) [61a, 6-fluoro-N-(1′-azaspiro[cyclopropane-1,2′-bicyclo[2.2.2]octan]-3′-yl)benzo[b]thiophene-2-carboxamide-enantiomer1] was tested, and the Ki [1, 3] was 1500 nM and the “% ACh @ 10 μM Oocyte” value [2] was 1493 % ACh.

In the case of `O=C(NC1C2CCN(CC2)C12CC2)c1ccc2ccsc2c1` (single isomer, unassigned; enantiomer1) [58a, N-(1′-azaspiro[cyclopropane-1,2′-bicyclo[2.2.2]octan]-3′-yl)benzo[b]thiophene-6-carboxamide-enantiomer1], the Ki [1, 3] is reported as 910 nM and the “% ACh @ 10 μM Oocyte” value [2] is reported as 235 % ACh.

`Cc1csc2cc(C(=O)N[C@@H]3C4CCN(CC4)C34CC4)ccc12` [(R)-78, (R)-3-methyl-N-(1′-azaspiro[cyclopropane-1,2′-bicyclo[2.2.2]octan]-3′-yl)benzo[b]thiophene-6-carboxamide hydrochloride] was tested, and the Ki [1, 3] was 2100 nM and the “% ACh @ 10 μM Oocyte” value [2] was 31 % ACh.

`O=C(N[C@@H]1C2CCN(CC2)C12CC2)c1ccc2occ(Cl)c2c1` [(R)-94, (R)-3-chloro-N-(1′-azaspiro[cyclopropane-1,2′-bicyclo[2.2.2]octan]-3′-yl)benzofuran-5-carboxamide hydrochloride] was tested, and the Ki [1, 3] was 1600 nM and the “% ACh @ 10 μM Oocyte” value [2] was 812 % ACh.

With `COc1cc2sc(C(=O)N[C@@H]3C4CCN(CC4)C34CC4)cc2cc1F` [(R)-173, (R)-5-fluoro-6-methoxy-N-(1′-azaspiro[cyclopropane-1,2′-bicyclo[2.2.2]octan]-3′-yl)benzo[b]thiophene-2-carboxamide hydrochloride] the Ki [1, 3] was greater than 10000 nM.

`COc1ccc2cc(C(=O)N[C@@H]3C4CCN(CC4)C34CC4)sc2c1Cl` [(R)-154, (R)-7-chloro-6-methoxy-N-(1′-azaspiro[cyclopropane-1,2′-bicyclo[2.2.2]octan]-3′-yl)benzo[b]thiophene-2-carboxamide hydrochloride] showed a Ki [1, 3] of 6200 nM.

Work on `N#Cc1cccc2cc(C(=O)N[C@@H]3C4CCN(CC4)C34CC4)sc12` [(R)-160, (R)-7-cyano-N-(1′-azaspiro[cyclopropane-1,2′-bicyclo[2.2.2]octan]-3′-yl)benzo[b]thiophene-2-carboxamide hydrochloride] yielded a Ki [1, 3] of 260 nM.

Molecule `Cc1ccc2cc(C(=O)N[C@@H]3C4CCN(CC4)C34CC4)sc2c1C1CC1` [(R)-196, (R)-7-cyclopropyl-6-methyl-N-(1′-azaspiro[cyclopropane-1,2′-bicyclo[2.2.2]octan]-3′-yl)benzo[b]thiophene-2-carboxamide hydrochloride] has a Ki [1, 3] of 610 nM.

In the case of `Cc1ccc2cc(C(=O)N[C@@H]3C4CCN(CC4)C3(C)C)sc2c1C(F)(F)F` [(R)-113, (R)—N-(2,2-dimethylquinuclidin-3-yl)-6-methyl-7-(trifluoromethyl)benzo[b]thiophene-2-carboxamide hydrochloride], the Ki [1, 3] is reported as greater than 10000 nM.

Molecule `O=C(N[C@@H]1C2CCN(CC2)C12CC2)c1cc2ccc3c(c2s1)CCCO3` [(R)-204, (R)—N-(1′-azaspiro[cyclopropane-1,2′-bicyclo[2.2.2]octan]-3′-yl)-8,9-dihydro-7H-thieno[2,3-f]chromene-2-carboxamide hydrochloride] has a Ki [1, 3] greater than 10000 nM.

`CC1(C)[C@H](NC(=O)c2cc3ccc(Cl)c(C(F)(F)F)c3s2)C2CCN1CC2` [(R)-111, (R)-6-chloro-N-(2,2-dimethylquinuclidin-3-yl)-7-(trifluoromethyl)benzo[b]thiophene-2-carboxamide hydrochloride] gave a Ki [1, 3] greater than 10000 nM.

For `O=C(N[C@@H]1C2CCN(CC2)C12CC2)c1cc2ccc3c(c2s1)OCCC3` [(R)-201, (R)—N-(1′-azaspiro[cyclopropane-1,2′-bicyclo[2.2.2]octan]-3′-yl)-3,4-dihydro-2H-thieno[3,2-h]chromene-8-carboxamide hydrochloride], the Ki [1, 3] was 3600 nM.

`Cc1c(Cl)ccc2cc(C(=O)N[C@@H]3C4CCN(CC4)C34CC4)sc12` [(R)-205, (R)-6-chloro-7-methyl-N-(1′-azaspiro[cyclopropane-1,2′-bicyclo[2.2.2]octan]-3′-yl)benzo[b]thiophene-2-carboxamide hydrochloride] was tested, and the Ki [1, 3] was 2600 nM.

`CCOc1cccc2cc(C(=O)N[C@@H]3C4CCN(CC4)C34CC4)sc12` [(R)-190, (R)-7-ethoxy-N-(1′-azaspiro[cyclopropane-1,2′-bicyclo[2.2.2]octan]-3′-yl)benzo[b]thiophene-2-carboxamide hydrochloride] showed a Ki [1, 3] of 290 nM.
